Reference: the NIST ThermoML archive (doi:10.1021/je7000683)

What was measured:
[1] = for vapor or sublimation pressure: Liquid, Calculated from knudsen effusion weight loss
[2] = Molar enthalpy of transition or fusion; conditions: Crystal; Adiabatic calorimetry
[3] = molar heat capacity at constant pressure; conditions: 101.33 kPa, Small (less than 1 g) adiabatic calorimetry
[4] = activity coefficient (dimensionless); of the first substance listed, at infinite dilution; xn = mol fraction of the nth substance listed; conditions: Liquid, Chromatography, x1 = 0

CCCCCC[n+]1ccn(C)c1.O=S(=O)([N-]S(=O)(=O)C(F)(F)F)C(F)(F)F
Conditions	Normal melting temperature [°C]
[1], Crystal, visual observation	-1

O=C1CCCCCN1 [1-aza-2-cycloheptanone]
[1]
Conditions	vapor or sublimation pressure [kPa]
315.3 K	0.00286
320.3 K	0.00442
331.9 K	0.01144

Conditions	Triple point temperature [K]	molar heat capacity at constant pressure [J/K/mol]
[1], Crystal, Adiabatic calorimetry	342.22	–
[3], 316 K, Crystal	–	168
[3], 319 K, Crystal	–	169.4
[3], 322 K, Crystal	–	171.1
[3], 323 K, Liquid	–	232.3
[3], 325 K, Crystal	–	173
[3], 326 K, Liquid	–	233.8
[3], 328 K, Crystal	–	175.1
[3], 329 K, Liquid	–	235.3
[3], 331 K, Crystal	–	177.5
[3], 332 K, Liquid	–	236.7
[3], 334 K, Crystal	–	180.1
[3], 335 K, Crystal	–	181
[3], 335 K, Liquid	–	238.2
[3], 338 K, Liquid	–	239.7
[3], 341 K, Liquid	–	241.2
[3], 344 K, Liquid	–	242.7
[3], 347 K, Liquid	–	244.2
[3], 350 K, Liquid	–	245.7
[3], 353 K, Liquid	–	247.1
[3], 356 K, Liquid	–	248.6
[3], 359 K, Liquid	–	250.1
[3], 362 K, Liquid	–	251.6
[3], 365 K, Liquid	–	253.1
[3], 368 K, Liquid	–	254.6

Conditions	Molar enthalpy of transition or fusion [kcal/mol]
[2]	3.862

O=C1CCCCCN1 [1-aza-2-cycloheptanone] + CCCCCC[n+]1ccn(C)c1.O=S(=O)([N-]S(=O)(=O)C(F)(F)F)C(F)(F)F
Conditions	activity coefficient
[4], 427.5 K	0.49

ON=C1CCCCC1 [cyclohexanone oxime] + CCCCCC[n+]1ccn(C)c1.O=S(=O)([N-]S(=O)(=O)C(F)(F)F)C(F)(F)F
[4]
Conditions	activity coefficient
375.4 K	2.41
386 K	2.22
396.5 K	2.03
407 K	1.84
417.1 K	1.67
417.6 K	1.61
427.5 K	1.51
438 K	1.28
